Measured values reported in PubChem BioAssay AID2842 (Southern Research Institute, 2010).
Values after ≈ are worked out from the molar mass of the structure shown.

These compounds were tested on M. tuberculosis H37Rv growth inhibition (assay: Mycobacterium tuberculosis H37Rv growth inhibition, putative kinase inhibitor library, confirmatory dose response (AID 2842);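 further: bacteria incubated one week before Alamar blue readout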).

SMILES	IC90 [µg/mL]
COc1ccc(C)c2sc(N(CCCn3ccnc3)C(=O)c3ccc(Cl)s3)nc12	2.69 (≈ 6.02 µM)
Cc1ccccc1C(=O)Nc1nnc(-c2ccco2)o1	1.69 (≈ 6.28 µM)
CC(C)(C)c1ccc(C(=O)Nc2nc(-c3ccc4c(c3)OCO4)cs2)cc1	6.72 (≈ 17.7 µM)
COc1cccc2sc(Nc3nc4ccccc4s3)nc12	3.41 (≈ 10.9 µM)
CCS(=O)(=O)c1cccc(C(=O)Nc2nnc(-c3cc(C)ccc3C)o2)c1	9.12 (≈ 23.7 µM)
Cc1ccc(-c2nnc(NC(=O)c3ccc(S(=O)(=O)N(C)C)cc3)o2)c(C)c1	41.1 (≈ 103 µM)
O=C(Nc1nnc(-c2ccc3c(c2)OCCO3)o1)c1ccccc1Br	12.6 (≈ 31.4 µM)
CCN(C1CCCCC1)S(=O)(=O)c1ccc(C(=O)Nc2nnc(-c3ccc(F)cc3)o2)cc1	5.64 (≈ 11.9 µM)
O=C(Nc1nnc(-c2cccnc2)o1)c1ccccc1Cl	53.5 (≈ 178 µM)
CC(C)OC(=O)c1ccc(NC(=O)C2COc3ccccc3O2)cc1 (configuration not stated)	7.2 (≈ 21.1 µM)
CCN(c1ccccc1)S(=O)(=O)c1ccc(C(=O)Nc2ccc3ncsc3c2)cc1	14.7 (≈ 33.5 µM)
O=C(Nc1nnc(-c2ccc3c(c2)OCCO3)o1)c1ccccc1Cl	4.5 (≈ 12.6 µM)
Cc1ccc(C(=O)c2cn(Cc3ccc(F)cc3)c3ccc(F)cc3c2=O)cc1	12.5 (≈ 32.2 µM)
c1ccc(CSc2ncnc3nc[nH]c23)cc1	19.5 (≈ 80.3 µM)
COc1cccc(C(=O)NNc2nc3c(C)cccc3s2)c1	11.6 (≈ 37.1 µM)
COc1ccc(-c2nnc(NC(=O)c3ccc(Cl)s3)o2)cc1	0.94 (≈ 2.8 µM)
COC(=O)C(C)Oc1ccc2cc(-c3ccc(OC)cc3)c(=O)oc2c1 (configuration not stated)	1.07 (≈ 3.02 µM)
NC(=O)c1c(NC(=O)c2ccc([N+](=O)[O-])s2)sc2c1CCN(Cc1ccccc1)C2	0.46 (≈ 1.04 µM)
O=C(/C=C/c1ccc(-c2ccccc2[N+](=O)[O-])o1)c1cccs1	13 (≈ 39.9 µM)
Fc1ccc(Nc2nc(Nc3cccc(F)c3)nc3nccnc23)cc1	60.6 (≈ 173 µM)
N=C1SCC(=O)N1c1ncc(Cc2cccc(Cl)c2)s1	2.11 (≈ 6.52 µM)
COc1ccc(CC(=O)N2CCN=C2SCc2ccc(C(F)(F)F)cc2)cc1	23.9 (≈ 58.4 µM)
Cc1ccc(-c2nnc(NC(=O)c3cccc(Oc4ccccc4)c3)o2)c(C)c1	25.3 (≈ 65.5 µM)
Cc1ccc(C(=O)Nc2nnc(-c3cc(C)ccc3C)o2)c(C)c1	7.29 (≈ 22.7 µM)

SMILES	IC90 [µg/mL]
Cc1nnc2ccc(-c3cccc(NC(=O)COc4ccc(Cl)cc4)c3)nn12	23.5 (≈ 59.6 µM)
Cc1ccc(C)c(-c2nnc(NC(=O)c3cc(Cl)ccc3[N+](=O)[O-])o2)c1	0.68 (≈ 1.82 µM)
O=C(Nc1nnc(-c2ccc(Cl)s2)o1)C1CCCCC1	6.45 (≈ 20.7 µM)
CC(C)(C)c1ccc(C(=O)Nc2nnc(-c3cccnc3)o2)cc1	0.84 (≈ 2.61 µM)
O=C(Nc1nnc(-c2ccccc2Cl)o1)C1=COCCO1	4.3 (≈ 14 µM)
N#Cc1ccc(C(=O)Nc2nnc(-c3cccnc3)o2)cc1	53.3 (≈ 183 µM)
C/C(=N\NC(=O)c1cc(-c2ccc(Cl)s2)[nH]n1)c1ccco1	6.9 (≈ 20.6 µM)
O=c1cnnc(N/N=C/c2cc(Br)ccc2O)[nH]1	< 0.2
Cc1ccc(-c2nnc(NC(=O)c3ccc(Br)cc3)o2)c(C)c1	52.2 (≈ 140 µM)
CC(C)(C)c1csc(Nc2nc3c(F)cccc3s2)n1	6.52 (≈ 21.2 µM)
CC(C)(C)c1ccc(C(=O)N2CC(=O)Nc3ccc(Cl)cc3C2c2ccc(F)cc2)cc1 (configuration not stated)	9.95 (≈ 22.1 µM)
COc1ccccc1C(=O)Nc1nnc(-c2ccc(Cl)cc2)o1	3.86 (≈ 11.7 µM)
CC(C)C(=O)Nc1nnc(-c2ccc3c(c2)OCCO3)o1	52.3 (≈ 181 µM)
Cc1cc(C)cc(Nc2nc(Nc3ccc(F)cc3)nc(N3CCOCC3)n2)c1	11.1 (≈ 28 µM)
CSc1ccccc1-c1nnc(NC(=O)c2cc(Cl)ccc2Cl)o1	0.98 (≈ 2.58 µM)
N#C/C(=C\c1c(Oc2ccccc2F)nc2ccccn2c1=O)C(N)=O	11.4 (≈ 32.5 µM)
O=C(Nc1nnc(-c2cc(Cl)ccc2Cl)o1)c1cc(Cl)ccc1Cl	0.49 (≈ 1.22 µM)
Cc1cccc2sc(NNC(=O)c3cc4ccccc4oc3=O)nc12	2.94 (≈ 8.37 µM)
O=C(OCn1nnc2ccccc2c1=O)C(c1ccccc1)c1ccccc1	8.87 (≈ 23.9 µM)
Cc1cc(C)c2nc(N(CCCn3ccnc3)C(=O)c3cccs3)sc2c1	1.45 (≈ 3.66 µM)
CCCc1cc(-c2nc(N)ncc2-c2ccc3c(c2)OCO3)c(O)cc1OC	17.6 (≈ 46.4 µM)
CCCCN1C(=O)c2cccc3c(NC(=O)c4ccc([N+](=O)[O-])s4)ccc1c23	22.7 (≈ 57.3 µM)
O=C(Nc1nnc(-c2ccccc2)o1)c1nc2ccccc2s1	5.84 (≈ 18.1 µM)
Fc1cccc2sc(Nc3nc(-c4ccccn4)cs3)nc12	< 0.2

SMILES	IC90 [µg/mL]
COc1ccccc1C(=O)Nc1nnc(-c2ccc(F)cc2)o1	34.9 (≈ 111 µM)
Cc1ccc(C)c(-c2nnc(NC(=O)C(C)C)o2)c1	6.62 (≈ 25.5 µM)
Cc1ccc2nc(NNC(=O)c3cc4ccccc4oc3=O)sc2c1	1.75 (≈ 4.98 µM)
COc1ccc(-c2nnc(NC(=O)c3ccccc3F)o2)cc1	66.9 (≈ 214 µM)
CCOC(=O)c1ccc(NC(=O)CSc2ccc(F)cc2)cc1	5.47 (≈ 16.4 µM)
O=c1[nH]c(N/N=C/c2cccs2)nnc1-c1ccccc1	21.6 (≈ 72.5 µM)
Cc1cc(Cl)cc2sc(N(CCCn3ccnc3)C(=O)c3cccs3)nc12	1.05 (≈ 2.52 µM)
NC(=O)c1c(Nc2nc3ccc(F)cc3s2)sc2c1CCCC2	51.3 (≈ 148 µM)
COC(=O)CSc1ncnc2c1cnn2-c1ccc(F)cc1	4.54 (≈ 14.3 µM)
COC(=O)c1c2c(n3ccc(C)cc13)C(=O)c1ccccc1C2=O	0.35 (≈ 1.1 µM)
Cc1cccn2c(=O)c3cc(C(=O)NC(C)c4ccccc4)c(=N)n(C4CCCCC4)c3nc12 (configuration not stated)	3.05 (≈ 6.7 µM)
CC1CCCN(c2nc3c(c(=O)[nH]c(=O)n3C)n2CCCSc2nc3ccccc3s2)C1 (configuration not stated)	16.6 (≈ 35.3 µM)
C(=N\n1cnnc1)/c1ccc(-n2nc(-c3ccccc3)cc2-c2ccccc2)cc1	15.1 (≈ 38.7 µM)
COc1cc(C2C3=C(CC(C)(C)CC3=O)Nc3ncnn32)ccc1OCc1ccc(Cl)c(Cl)c1 (configuration not stated)	6.77 (≈ 13.6 µM)
O=C(NCCSc1c[nH]c2ccccc12)Nc1c[nH]c2ccccc12	10.2 (≈ 29.1 µM)
Cc1cccc(C(=O)Nc2nnc(-c3cccnc3)o2)c1	8.87 (≈ 31.6 µM)
Cc1ccc(NC(=O)CC2Nc3cccc4cccc(c34)NC2=O)cc1 (configuration not stated)	61.8 (≈ 179 µM)
O=C(Nc1nnc(C2=COCCO2)o1)c1ccc(F)cc1	2.21 (≈ 7.59 µM)
CCOC(=O)COc1ccc2c(C)c(-c3ccc(OC)c(OC)c3)c(=O)oc2c1	2.34 (≈ 5.87 µM)
Cc1ccccc1C(=O)Nc1nnc(-c2ccccn2)o1	15.2 (≈ 54.2 µM)
O=C(Nc1nnc(-c2ccc3c(c2)CCCC3)o1)c1sc2ccccc2c1Cl	34.5 (≈ 84.2 µM)
c1ccc2c(c1)CCN(c1nc3cc4c(cc3s1)OCCO4)C2	16 (≈ 49.4 µM)
NC(=O)c1c(NC(=O)c2ccc([N+](=O)[O-])o2)sc2c1CCCCC2	0.52 (≈ 1.49 µM)
O=C(CSc1ncnc2c1oc1ccccc12)OCc1ccccc1	12.1 (≈ 34.6 µM)

SMILES	IC90 [µg/mL]
O=C(CSc1n[nH]c(=O)[nH]c1=O)c1ccccc1	12.1 (≈ 45.9 µM)
Cc1ccc(-c2nnc(NC(=O)C3CC3)o2)c(C)c1	1.47 (≈ 5.71 µM)
O=C(Nc1nnc(-c2ccc(Cl)cc2)o1)c1ccc([N+](=O)[O-])o1	0.26 (≈ 0.777 µM)
CSc1nc2ccc3nc(NC(=O)c4cc5ccccc5oc4=O)sc3c2s1	26.1 (≈ 61.3 µM)
Cc1ccccc1C(=O)Nc1nnc(-c2ccc(Cl)cc2)o1	0.55 (≈ 1.75 µM)
Cc1ccc(C)c(-c2nnc(NC(=O)c3ccccc3F)o2)c1	< 0.2
CCOC(=O)c1sc(NC(=O)CCSc2ccccc2)cc1C	0.82 (≈ 2.35 µM)
CCC(=O)Nc1nnc(-c2cccs2)o1	17.1 (≈ 76.8 µM)
Cc1ccc(C)c(-c2nnc(NC(=O)c3cccc(Br)c3)o2)c1	12.6 (≈ 33.9 µM)
O=C(CCN1C(=O)c2ccccc2S1(=O)=O)Nc1ccc(Br)cc1	17.5 (≈ 42.9 µM)
COc1ccc2nc(N=Nc3c(C)[nH]n(-c4ccccc4)c3=O)sc2c1	7.7 (≈ 21.1 µM)
O=C(OCn1nnc2ccccc2c1=O)c1ccccc1	1.41 (≈ 5.01 µM)
Cc1ccc(N=Nc2c(C)[nH][nH]c2=O)cc1	10.1 (≈ 46.6 µM)
Cc1ccc(Nc2nc(N3CCN(Cc4ccccc4)CC3)nc3nccnc23)cc1Cl	2.67 (≈ 5.99 µM)
O=C(Cc1ccccc1)Nc1nnc(-c2ccc(F)cc2)o1	8.35 (≈ 28.1 µM)
Cc1sc2nc(SCC#N)[nH]c(=O)c2c1C	17.3 (≈ 69 µM)
COC(=O)CSCC(=O)Nc1nnc(-c2cccc(C)c2)s1	23.9 (≈ 70.8 µM)
COc1cccc(C(=O)Nc2nnc(-c3ccc(C)cc3C)o2)c1	20.8 (≈ 64.2 µM)
Cc1ccc(C)c(-c2nnc(NC(=O)c3cc(Cl)sc3Cl)o2)c1	2.16 (≈ 5.87 µM)
Cc1ccc2sc(N(CCCn3ccnc3)C(=O)c3ccco3)nc2c1C	0.58 (≈ 1.52 µM)
O=C(Nc1nnc(-c2ccc3c(c2)CCCC3)o1)c1cc(Cl)sc1Cl	3.53 (≈ 8.95 µM)
Cc1ccc(C(=O)Nc2nnc(-c3ccc(C)cc3C)o2)c(C)c1	3.99 (≈ 12.4 µM)
COc1cccc(-c2csc(NC(=O)c3ccc4c(c3)OCCO4)n2)c1	14.3 (≈ 39 µM)
CSc1ccc2nc(Nc3nnc(-c4ccc5c(c4)OCCO5)o3)sc2c1	15.1 (≈ 38 µM)

SMILES	IC90 [µg/mL]
COc1cccc(-c2nnc(NC(=O)c3ccc(Cl)cc3Cl)o2)c1	8.25 (≈ 22.7 µM)
O=C(Nc1nnc(-c2cc(Cl)ccc2Cl)o1)c1ccc(S(=O)(=O)N2CCOCC2)cc1	3.86 (≈ 7.99 µM)
O=C(COc1ccccc1)Nc1nnc(-c2ccc3c(c2)CCCC3)o1	6.48 (≈ 18.5 µM)
CC1(C)Cc2c(sc(NC(=O)c3ccc(Cc4ccccc4)cc3)c2C(N)=O)C(C)(C)N1	10.4 (≈ 23.3 µM)
CCOc1cccc2sc(N(CCCn3ccnc3)C(=O)Cc3ccc(F)cc3)nc12	4.84 (≈ 11 µM)
Cc1ccc(C)c(-c2nnc(NC(=O)c3ccc(Cl)s3)o2)c1	26.4 (≈ 79.2 µM)
CCOc1ccc(-c2nnc3c4cc5c(cc4n(Cc4cccc(F)c4)cc2-3)OCO5)cc1	54.2 (≈ 123 µM)
O=C(Nc1nnc(-c2cc(Cl)ccc2Cl)o1)c1ccccc1Cl	1.66 (≈ 4.5 µM)
Clc1ccc(Cn2nnc3c(SCc4cccnc4)ncnc32)cc1	13.4 (≈ 36.3 µM)
N#C/C(=C\Nc1ccccc1)c1nc2ccccc2[nH]1	3.25 (≈ 12.5 µM)
O=C(OCn1nnc2ccccc2c1=O)c1ccco1	4.76 (≈ 17.5 µM)
Cc1ccc(Nc2nc(N3CCN(c4ccccc4)CC3)nc3nccnc23)cc1C	32 (≈ 77.7 µM)
Cc1ccc(-c2nnc(NC(=O)c3nc4ccccc4s3)o2)c(C)c1	1.76 (≈ 5.02 µM)
COc1ccc(-c2nnc3c4cc5c(cc4n(Cc4ccc(C)cc4)cc2-3)OCCO5)cc1	5.09 (≈ 11.6 µM)
Cc1ccc(-n2ncc3c(NNC(=O)c4ccc(Cl)cc4Cl)ncnc32)cc1	11.9 (≈ 28.7 µM)
O=C(Nc1nnc(-c2ccc(Cl)cc2)o1)c1ccc(Br)cc1	3.26 (≈ 8.61 µM)
Cc1ccc(C(=O)Nc2nnc(-c3ccc(C)cc3C)o2)cc1	33.5 (≈ 109 µM)
COc1cc2c(=O)c(C(=O)c3ccc(Cl)cc3)cn(Cc3ccccc3F)c2cc1OC	45 (≈ 99.5 µM)
COc1cc2c3nnc(-c4ccc(C)c(C)c4)c-3cn(Cc3ccc(C)cc3)c2cc1OC	1.55 (≈ 3.54 µM)
Fc1cccc2sc(Nc3nnc(-c4ccco4)o3)nc12	2.08 (≈ 6.88 µM)
CCCC(=O)Nc1nnc(-c2cc(C)ccc2C)o1	2.09 (≈ 8.06 µM)
